Read-outs that look alike come from different tables or passages of the source.
Key:
SK-BR-3 tumor cells = test: In vitro proliferation inhibitory activity of compounds of Formula (GH) on SK-BR-3 tumor cells (CCK8); format: cell-based; conditions: Homo sapiens, SK-BR-3, 72 h, 3 days of culture, read-out: IC50 for inhibiting proliferation of SK-BR-3 cells in vitro
Description: The objective of this experiment is to detect the in vitro killing activity of the compound of Formula (GH) of the present disclosure on SK-BR-3 tumor cells (human breast cancer cells, Wuhan Procell, Catalog No. CL-0211). The cells were treated with different concentrations of the compound in vitro. After 3 days of culture, the number of viable cells was detected using CCK8 (Cell Counting Kit-8, Catalog No. TS547) reagents, and the in vitro activity of the test compound was evaluated according to the IC50 value.
Taking the test method of in vitro killing activity on SK-BR-3 cells as an example, the following test was performed. […] After the cells were completely digested, 10 mL of cell culture medium containing 2% FBS was added to wash out the digested cells, centrifugation was performed at 300 g for 5 min, the supernatant was discarded, and then 10 to 20 mL of cell culture medium containing 2% FBS was added to resuspend the cells to prepare a single cell suspension. • (3) Cell plating: The SK-BR-3 single cell suspension was mixed well, the viable cell density was adjusted to 6×10^4 cells/mL with the cell culture medium containing 2% FBS, the cell suspension after density adjustment was mixed well, and added to a 96-well cell culture plate at 100 μL/well. Only 200 μL of PBS was added to the peripheral wells of the 96-well plate. The culture plate was incubated in an incubator for 24 hours (37° C., 5% CO2). • (4) Compound preparation: The compound was dissolved in DMSO (dimethyl sulfoxide, SIGMA) to prepare a 2 mM stock solution.
The starting concentrations of small molecule compounds and Dxd were both 600 nM, and the preparation method was as follows.
Then, 315 μL of different samples to be tested were added to the first column of a 96-well U-bottomed drug distribution plate, and the sample concentration was 1200 nM; 210 μL of the cell culture medium containing 2% FBS was added to each well of the second to tenth columns. 105 μL of the sample was taken from the first column and added to the 210 μL cell culture medium in the second column and mixed well, and 105 μL was taken and added to the third column, and so on to the tenth column. • (5) Sample loading operation: 100 μL of the sample to be tested of different concentrations was added to the culture plate, and two replicate wells were set for each sample. The culture plate was incubated in an incubator for 3 days (37° C., 5% CO2). • (6) Color development operation: The 96-well cell culture plate was taken out, the cell culture supernatant was removed by tapping, 100 μL of the RPMI 1640 basal medium (without FBS) containing 10% CCK8 was added, and then it was incubated in an incubator for about 1.5 hours (37° C., 5% CO2). • (7) Plate reading operation: The 96-well cell culture plate was taken out, placed in an ELISA reader (MD SpectraMax i3X), and A450 was determined by the ELISA reader. • (8) Data analysis: Microsoft Excel and Graphpad Prism 5 were used to process and analyze the data.

NCI-N87 tumor cells = test: In vitro proliferation inhibitory activity of compounds of Formula (GH) on NCI-N87 tumor cells (CCK8); format: cell-based, human; conditions: Homo sapiens, read-out: IC50 for inhibiting proliferation of NCI-N87 cells in vitro
Description: The objective of this experiment is to detect the in vitro killing activity of the compound of Formula (GH) disclosed in the present invention on NCI-N87 tumor cells (human gastric cancer cells, Cell Resource Center, Institute of Basic Medicine, Chinese Academy of Medical Sciences, Catalog No. 3111C0001CCC000481). The cells were treated with different concentrations of the compound in vitro, and after 6 days of culture, the number of viable cells was detected using CCK8 (Cell Counting Kit-8, Catalog No. TS547) reagents, and the in vitro activity of the test compound was evaluated according to the IC50 value.
• (1) Cell culture: NCI-N87 cells were cultured in the RPMI 1640 medium containing 2% FBS (Shanghai BasalMedia Technologies Co., Ltd., Catalog No. L210KJ). • (2) Cell preparation: NCI-N87 cells in the logarithmic growth phase were taken, washed once with PBS (phosphate buffered saline, Shanghai BasalMedia Technologies Co., Ltd., Catalog No. E211004), added with 1 mL of trypsin (0.25% Trypsin-EDTA (1×), Shanghai BasalMedia Technologies Co., Ltd., Catalog No. A121002) to allow digestion for 2 to 3 minutes. After the cells were completely digested, 10 mL of the cell culture medium was added to wash off and obtain the digested cells, centrifugation was performed at 300 times gravitational acceleration (g) for 5 min, the supernatant was discarded, then 10 mL of PBS was added to wash the cells once, centrifugation was performed at 300 times gravitational acceleration (g) for 5 minutes, the supernatant was discarded, and 10 mL of the cell culture medium containing 2% FBS was added to resuspend the cells to prepare a single cell suspension. • (3) Cell plating: The NCI-N87 single cell suspension was mixed, the density of live cells was adjusted to 3×10^4 cells/mL with 2% FBS cell culture medium, the cell suspension after density adjustment was mixed well, and added to a 96-well cell culture plate at 100 μL/well. Only 200 μL of PBS was added to each of the peripheral wells of the 96-well plate. The plate was incubated in an incubator for 24 hours (37° C., 5% CO2). • (4) Preparation of sample to be tested:
The sample to be tested was diluted to 3200 nM with cell culture medium containing 2% FBS, then 300 μL of the sample was added to the first well of a 96-well U-bottomed plate with a sample concentration of 3200 nM; and 210 μL of cell culture medium containing 2% FBS was added to each well of the second to tenth columns. 70 μL of the sample was taken from the first column and added to the 210 μL cell culture medium in the second column and mixed well, 70 μL was taken and added to the third column, and so on to the ninth column. • (5) Sample loading operation: 100 μL of the sample to be tested with different concentrations was added to the culture plate, two replicate wells were set for each sample. The culture plate was incubated in an incubator for 6 days (37° C., 5% CO2). • (6) Color development operation: The 96-well cell culture plate was taken out, the supernatant of the culture medium was removed by tapping, 100 μL of 10% CCK8 (prepared with RPMI 1640 basal culture medium, without FBS) solution was added to each well, and incubation was performed in an incubator for 2 hours. • (7) Plate reading operation: The 96-well cell culture plate was taken out, placed in an ELISA reader (SpectraMax i3X), and A450 was determined by the ELISA reader. • (8) Data analysis: Microsoft Excel and Graphpad Prism 5 were used to process and analyze the data.

Row | Structure (SMILES) | IC50 (SK-BR-3 tumor cells) [nM] | IC50 (NCI-N87 tumor cells; NCI-N87, […]) [nM] | IC50 (NCI-N87 tumor cells; NCI-N87, 6 days of culture, CCK8) [nM]
1 | Cc1c(F)cc2nc3c(c4c2c1CC[C@@H]4NC(=O)[C@@H](O)C1CC1)Cn1c-3cc2c(c1=O)COC(=O)[C@]2(O)CC1CC1 [Compound 4-A, (S)-2-Cyclopropyl-N-((1S,9S)-9-(cyclopropylmethyl)-5-fluoro-9-hydroxy-4-methyl-10,13-dioxo-2,3,9,10,13,15-hexahydro-1H,12H-benzo[de]pyrano[3′,4′:6,7]indolizino[1,2-b]quinolin-1-yl)-2-hydroxyacetamide] | 6.42 | 2.4 | 
2 | Cc1c(F)cc2nc3c(c4c2c1CC[C@@H]4NC(=O)[C@@H](C)O)Cn1c-3cc2c(c1=O)COC(=O)[C@]2(O)CC1CC1 [Compound 3-A, (R)-N-((1S,9S)-9-(cyclopropylmethyl)-5-fluoro-9-hydroxy-4-methyl-10,13-dioxo-2,3,9,10,13,15-hexahydro-1H,12H-benzo[de]pyrano[3′,4′:6,7]indolizino[1,2-b]quinolin-1-yl)-2-hydroxypropanamide] | 5.91 |  | 5.28
3 | Cc1c(F)cc2nc3c(c4c2c1CC[C@H]4NC(=O)[C@H](O)C1CC1)Cn1c-3cc2c(c1=O)COC(=O)[C@]2(O)CC1CC1 [Compound 5-B, (R)-2-Cyclopropyl-N-((1R,9S)-9-(cyclopropylmethyl)-5-fluoro-9-hydroxy-4-methyl-10,13-dioxo-2,3,9,10,13,15-hexahydro-1H,12H-benzo[de]pyrano[3′,4′:6,7]indolizino[1,2-b]quinolin-1-yl)-2-hydroxyacetamide] | 4.92 | 2.96 | 
